For orientation: inhibition means the percentage by which the read-out fell short of the control.

Assay [1] deals with Human myeloid monocytic leukemia cell (MV-4-11). Description: Tumor cell proliferation inhibition (CellTiter-Meiluncell luminescent cell viability assay). To be noted: MV4-11, 96 h; for inhibition at 0.01 µM: read-out: Inhibition Rate at 10 nM (%); for inhibition at 0.5 µM: read-out: Inhibition Rate at 500 nM (%).
The target of assay [2] is T1, human Cereblon WT GST-tagged protein (Homo sapiens, UniProt Q96SW2).
T1 construct: purchased CISBIO 64BDCRBNPEH
T1 sequence (Q96SW2 whole entry): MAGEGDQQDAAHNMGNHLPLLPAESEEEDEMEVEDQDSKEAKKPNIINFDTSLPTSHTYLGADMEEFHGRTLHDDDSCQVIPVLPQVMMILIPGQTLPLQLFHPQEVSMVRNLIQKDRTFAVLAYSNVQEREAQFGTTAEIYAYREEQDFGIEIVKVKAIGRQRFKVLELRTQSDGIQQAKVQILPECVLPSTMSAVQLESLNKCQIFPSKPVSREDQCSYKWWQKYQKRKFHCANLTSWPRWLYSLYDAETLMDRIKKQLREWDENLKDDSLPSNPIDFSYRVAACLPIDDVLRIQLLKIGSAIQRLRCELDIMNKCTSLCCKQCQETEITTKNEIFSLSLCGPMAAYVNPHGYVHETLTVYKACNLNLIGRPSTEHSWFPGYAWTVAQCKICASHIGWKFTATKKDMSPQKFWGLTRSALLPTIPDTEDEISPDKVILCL
The assay is described as follows: CRBN-binding affinity, HTRF (CEREBLON BINDING kit). To be noted: for inhibition at 0.5 µM: read-out: Inhibition Rate at 0.5 µM (%); for inhibition at 2 µM: read-out: Inhibition Rate at 2 µM (%). A general note: Time-resolved FRET reads energy transfer from a long-lived donor to a nearby acceptor.

The next assay deals with GSPT1. The assay is described as follows: Western blot, degradation of substrate protein in hPBMCs. It counts as cell-based, Human. (In general: A western blot detects proteins with antibodies after separation by electrophoresis.)
Assay [3] deals with Human multiple myeloma cell (MM.1S). Description: Tumor cell proliferation inhibition (CellTiter-Meiluncell luminescent cell viability assay). Particulars: Homo sapiens, MM1.S, 96 h; for inhibition at 0.01 µM: read-out: Inhibition Rate at 10 nM (%); for inhibition at 0.5 µM: read-out: Inhibition Rate at 500 nM (%).
In another assay the target is T2, IKZF3 (Homo sapiens, UniProt Q96SW2+Q9UKT9).
T2 construct: effects of the compounds of the present disclosure on the expression of target proteins in cells; endogenous in cells; host or cells: human PBMCs (Milecell Biotechnologies)
T2 sequence (Q9UKT9 whole entry): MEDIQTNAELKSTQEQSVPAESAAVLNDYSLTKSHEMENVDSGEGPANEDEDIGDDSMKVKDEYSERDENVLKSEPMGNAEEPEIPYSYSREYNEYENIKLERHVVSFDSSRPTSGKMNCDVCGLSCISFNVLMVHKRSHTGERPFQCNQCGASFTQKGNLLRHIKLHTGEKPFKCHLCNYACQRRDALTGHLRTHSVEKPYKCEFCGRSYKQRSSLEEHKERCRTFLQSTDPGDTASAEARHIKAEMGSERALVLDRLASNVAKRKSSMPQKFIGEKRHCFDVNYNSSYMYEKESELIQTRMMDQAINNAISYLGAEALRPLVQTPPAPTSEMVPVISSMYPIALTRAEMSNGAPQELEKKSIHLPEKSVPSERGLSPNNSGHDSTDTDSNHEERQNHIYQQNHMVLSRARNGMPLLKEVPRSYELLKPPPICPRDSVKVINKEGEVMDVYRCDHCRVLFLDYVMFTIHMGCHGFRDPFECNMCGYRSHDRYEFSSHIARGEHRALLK
T2 sequence (Q96SW2 whole entry): as the sequence (Q96SW2 whole entry) above
T2 sequence (Q16531 whole entry partner): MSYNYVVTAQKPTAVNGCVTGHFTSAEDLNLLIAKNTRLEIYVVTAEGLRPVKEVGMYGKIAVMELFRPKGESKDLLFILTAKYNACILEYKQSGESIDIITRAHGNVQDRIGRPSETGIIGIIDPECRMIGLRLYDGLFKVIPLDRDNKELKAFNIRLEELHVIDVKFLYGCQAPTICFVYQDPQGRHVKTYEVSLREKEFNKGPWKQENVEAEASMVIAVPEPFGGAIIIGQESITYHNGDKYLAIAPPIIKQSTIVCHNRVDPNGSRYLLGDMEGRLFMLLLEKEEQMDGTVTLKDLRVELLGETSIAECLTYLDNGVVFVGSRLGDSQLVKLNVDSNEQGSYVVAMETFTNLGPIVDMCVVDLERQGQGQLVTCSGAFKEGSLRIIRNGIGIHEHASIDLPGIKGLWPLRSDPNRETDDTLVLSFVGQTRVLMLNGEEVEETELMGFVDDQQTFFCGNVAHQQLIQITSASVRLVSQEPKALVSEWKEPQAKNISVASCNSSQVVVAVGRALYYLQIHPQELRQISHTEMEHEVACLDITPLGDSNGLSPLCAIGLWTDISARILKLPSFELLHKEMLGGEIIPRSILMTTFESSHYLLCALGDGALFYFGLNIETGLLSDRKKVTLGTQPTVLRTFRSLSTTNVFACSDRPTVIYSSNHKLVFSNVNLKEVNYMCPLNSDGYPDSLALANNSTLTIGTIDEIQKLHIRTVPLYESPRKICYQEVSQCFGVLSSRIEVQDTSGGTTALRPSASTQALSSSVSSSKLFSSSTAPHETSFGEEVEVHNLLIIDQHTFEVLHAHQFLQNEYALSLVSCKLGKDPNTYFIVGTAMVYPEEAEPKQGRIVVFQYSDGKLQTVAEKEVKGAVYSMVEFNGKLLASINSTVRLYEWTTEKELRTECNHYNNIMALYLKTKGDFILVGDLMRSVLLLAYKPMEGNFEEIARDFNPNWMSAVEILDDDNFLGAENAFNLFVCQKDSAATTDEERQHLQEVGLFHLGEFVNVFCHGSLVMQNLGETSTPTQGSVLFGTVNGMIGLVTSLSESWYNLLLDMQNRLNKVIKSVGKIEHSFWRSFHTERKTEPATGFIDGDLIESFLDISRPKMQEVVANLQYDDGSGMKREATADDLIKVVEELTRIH
Description: Western blot, degradation of substrate protein in hPBMCs. It counts as cell-based.

The next assay concerns the target T3, CK1α (Homo sapiens, UniProt P48729+Q96SW2).
T3 construct: effects of the compounds of the present disclosure on the expression of target proteins in cells; endogenous in cells; host or cells: human PBMCs (Milecell Biotechnologies)
Described as above. It counts as cell-based.

For the next assay, the target named is T4, IKZF2 (Homo sapiens, UniProt Q96SW2+Q9UKS7).
T4 construct: effects of the compounds of the present disclosure on the expression of target proteins in cells; endogenous in cells; host or cells: human PBMCs (Milecell Biotechnologies)
T4 sequence (Q9UKS7 whole entry): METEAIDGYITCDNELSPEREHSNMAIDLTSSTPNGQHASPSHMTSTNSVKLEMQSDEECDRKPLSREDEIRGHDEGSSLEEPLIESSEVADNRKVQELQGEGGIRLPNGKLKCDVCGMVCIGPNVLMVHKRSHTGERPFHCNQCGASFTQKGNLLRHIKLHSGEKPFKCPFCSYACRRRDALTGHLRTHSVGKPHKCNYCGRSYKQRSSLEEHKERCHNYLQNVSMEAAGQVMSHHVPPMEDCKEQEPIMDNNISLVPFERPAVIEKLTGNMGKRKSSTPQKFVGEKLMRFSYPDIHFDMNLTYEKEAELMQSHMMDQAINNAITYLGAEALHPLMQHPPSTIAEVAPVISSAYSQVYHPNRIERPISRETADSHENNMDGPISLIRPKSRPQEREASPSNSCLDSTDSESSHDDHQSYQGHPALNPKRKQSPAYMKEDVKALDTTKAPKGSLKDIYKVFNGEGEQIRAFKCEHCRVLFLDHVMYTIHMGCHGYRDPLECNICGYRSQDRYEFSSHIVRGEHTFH
T4 sequence (Q96SW2 whole entry): as the sequence (Q96SW2 whole entry) above
T4 sequence (Q16531 whole entry partner): as the sequence (Q16531 whole entry partner) above
Described as above. It counts as cell-based.

A further assay addresses T5, IKZF1 (Homo sapiens, UniProt Q13422+Q96SW2).
T5 construct: effects of the compounds of the present disclosure on the expression of target proteins in cells; endogenous in cells; host or cells: human PBMCs (Milecell Biotechnologies)
The assay is described as above. It counts as cell-based.

In another assay the target is T6, WEE1 (Homo sapiens, UniProt P30291+Q96SW2).
T6 construct: effects of the compounds of the present disclosure on the expression of target proteins in cells; endogenous in cells; host or cells: human PBMCs (Milecell Biotechnologies)
T6 sequence (P30291 whole entry): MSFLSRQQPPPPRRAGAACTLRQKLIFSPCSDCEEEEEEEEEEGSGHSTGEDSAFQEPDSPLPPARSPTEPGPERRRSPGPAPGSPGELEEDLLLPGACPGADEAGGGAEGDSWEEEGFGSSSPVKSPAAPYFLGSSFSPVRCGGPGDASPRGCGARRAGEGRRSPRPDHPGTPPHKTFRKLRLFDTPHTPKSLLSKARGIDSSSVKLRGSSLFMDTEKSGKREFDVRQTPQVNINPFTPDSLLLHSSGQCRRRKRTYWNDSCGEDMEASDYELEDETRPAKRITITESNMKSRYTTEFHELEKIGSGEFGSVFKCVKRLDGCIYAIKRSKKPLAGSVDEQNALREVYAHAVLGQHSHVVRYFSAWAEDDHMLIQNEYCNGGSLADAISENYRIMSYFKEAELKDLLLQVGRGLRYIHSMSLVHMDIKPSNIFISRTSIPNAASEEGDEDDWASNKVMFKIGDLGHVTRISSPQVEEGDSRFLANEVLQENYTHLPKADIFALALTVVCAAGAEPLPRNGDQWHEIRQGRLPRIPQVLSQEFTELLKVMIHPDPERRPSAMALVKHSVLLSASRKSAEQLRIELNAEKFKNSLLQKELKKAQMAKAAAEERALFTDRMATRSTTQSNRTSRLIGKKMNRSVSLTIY
T6 sequence (Q96SW2 whole entry): as the sequence (Q96SW2 whole entry) above
T6 sequence (Q16531 whole entry partner): as the sequence (Q16531 whole entry partner) above
The description is as above. It counts as cell-based.

[4] abbreviates: Western blot, 24 hours of compound treatment, compounds tested at 50 nM and 500 nM (concentration for the table not stated).
[5] abbreviates: 24 hours treatment, compounds at 50 nM and 500 nM (concentration behind the class not stated).

Molecules are shown by their SMILES.

T5 sequence (Q13422 whole entry): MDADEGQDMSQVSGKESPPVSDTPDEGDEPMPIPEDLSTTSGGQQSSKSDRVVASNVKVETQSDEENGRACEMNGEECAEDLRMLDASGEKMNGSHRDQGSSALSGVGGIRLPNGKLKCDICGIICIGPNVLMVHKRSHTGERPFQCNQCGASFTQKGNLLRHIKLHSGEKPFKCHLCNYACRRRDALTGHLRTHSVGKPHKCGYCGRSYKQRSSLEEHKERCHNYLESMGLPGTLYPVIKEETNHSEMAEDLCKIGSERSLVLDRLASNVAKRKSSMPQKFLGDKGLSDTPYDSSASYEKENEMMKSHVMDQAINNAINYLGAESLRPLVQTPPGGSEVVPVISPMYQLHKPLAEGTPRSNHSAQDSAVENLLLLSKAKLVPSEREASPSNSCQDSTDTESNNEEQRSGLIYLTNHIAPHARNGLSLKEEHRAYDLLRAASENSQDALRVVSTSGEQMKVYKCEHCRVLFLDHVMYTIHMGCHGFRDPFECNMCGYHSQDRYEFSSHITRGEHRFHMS
T5 sequence (Q96SW2 whole entry): as the sequence (Q96SW2 whole entry) above
T5 sequence (Q16531 whole entry partner): as the sequence (Q16531 whole entry partner) above
T3 sequence (P48729 whole entry): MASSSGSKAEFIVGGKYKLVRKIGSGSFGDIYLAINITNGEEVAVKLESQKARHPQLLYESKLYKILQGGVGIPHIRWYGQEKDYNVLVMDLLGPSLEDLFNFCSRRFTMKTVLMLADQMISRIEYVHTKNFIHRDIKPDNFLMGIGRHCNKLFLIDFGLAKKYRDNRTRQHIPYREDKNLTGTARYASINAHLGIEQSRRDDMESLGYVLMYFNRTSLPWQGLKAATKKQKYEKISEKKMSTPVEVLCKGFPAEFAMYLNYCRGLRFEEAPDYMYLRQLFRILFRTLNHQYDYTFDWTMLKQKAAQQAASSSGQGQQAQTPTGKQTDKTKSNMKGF
T3 sequence (Q96SW2 whole entry): as the sequence (Q96SW2 whole entry) above
T3 sequence (Q16531 whole entry partner): as the sequence (Q16531 whole entry partner) above

Turning to `O=C1CCC(N2Cc3c(CN4CCN(c5cc(Cl)ccc5Cl)CC4)cccc3C2=S)C(=O)N1` (stereo not drawn) [GT-08501, 3-(4-((4-(2,5-dichlorophenyl)piperazin-1-yl)methyl)-1-thioxoisoindolin-2-yl)piperidine-2,6-dione], in assay [1], the inhibition at 0.01 µM was in the range of 40 to 60% and the inhibition at 0.5 µM lay in the range of 40 to 60%. Further, in assay [2], the inhibition at 0.5 µM was in the range of 30 to 40% and the inhibition at 2 µM is 53 to 60%. Moreover, the “GSPT1 substrate protein remaining %” value with GSPT1 (setting [4]) is recorded as “A (0% ≤ substrate protein remaining % ≤ 80%)”. For the same compound, in assay [3], the inhibition at 0.01 µM was in the range of 50 to 60% and the inhibition at 0.5 µM lay within 60 to 70%. The “IKZF3 substrate protein remaining %” value at IKZF3 (setting [4]) is “B (80%< substrate protein remaining %≤ 100%)”. Also, the “CK1α substrate protein remaining %” value at CK1α (setting [4]) is “B (80%< substrate protein remaining %≤ 100%)”. Also, the “IKZF2 substrate protein remaining %” value on IKZF2 (setting [4]) is listed as “A (0% ≤ substrate protein remaining % ≤ 80%)”. In addition, at IKZF1 (setting [4]), the “IKZF 1 substrate protein remaining %” value was “A (0% ≤ substrate protein remaining % ≤ 80%)”. In addition, the “Wee1 substrate protein remaining %” value on WEE1 (setting [4]) is recorded as “A (0% ≤ substrate protein remaining % ≤ 80%)”.
On to `O=C1CCC(N2Cc3cc(CN4CCN(c5ccc(Br)cc5)CC4)ccc3C2=S)C(=O)N1` (stereo not drawn) [GT-08600, 3-(5-((4-(4-bromophenyl)piperazin-1-yl)methyl)-1-thioxoisoindolin-2-yl)piperidine-2,6-dione], for which, in [1], the inhibition at 0.01 µM was 40 to 60% and the inhibition at 0.5 µM is 80 to 100%. Moreover, in assay [2], the inhibition at 0.5 µM lay in the range of 53 to 60% and the inhibition at 2 µM lay within 80 to 100%. For the same compound, the “GSPT1 substrate protein remaining %” value with GSPT1 (setting [4]) is “A (0% ≤ substrate protein remaining % ≤ 80%)”. In assay [3], the inhibition at 0.01 µM lay within 30 to 40% and the inhibition at 0.5 µM lay within 60 to 70%. Moreover, the “IKZF3 substrate protein remaining %” value on IKZF3 (setting [4]) is on record as “B (80%< substrate protein remaining %≤ 100%)”. In addition, at CK1α (setting [4]), the “CK1α substrate protein remaining %” value is “B (80%< substrate protein remaining %≤ 100%)”. The “IKZF2 substrate protein remaining %” value at IKZF2 (setting [4]) is “B (80%< substrate protein remaining %≤ 100%)”. The “IKZF 1 substrate protein remaining %” value at IKZF1 (setting [4]) was “B (80%< substrate protein remaining %≤ 100%)”. The “Wee1 substrate protein remaining %” value on WEE1 (setting [4]) is “B (80%< substrate protein remaining %≤ 100%)”.
As for `O=C1CCC(N2Cc3cc(CN4CCC(c5ccccc5F)CC4)ccc3C2=S)C(=O)N1` (stereo not drawn) [GT-08620, 3-(5-((4-(2-fluorophenyl)piperidin-1-yl)methyl)-1-thioxoisoindolin-2-yl)piperidine-2,6-dione], in assay [1], the inhibition at 0.01 µM is 30 to 40% and the inhibition at 0.5 µM was 60 to 80%. In addition, in [2], the inhibition at 0.5 µM lay in the range of 53 to 60% and the inhibition at 2 µM was 80 to 100%. In the assay on GSPT1 (setting [4]), the “GSPT1 substrate protein remaining %” value is “A (0% ≤ substrate protein remaining % ≤ 80%)”. Further, in assay [3], the inhibition at 0.01 µM was 40 to 50% and the inhibition at 0.5 µM was 70 to 80%. Further, the “IKZF3 substrate protein remaining %” value at IKZF3 (setting [4]) was “B (80%< substrate protein remaining %≤ 100%)”. Besides, the “CK1α substrate protein remaining %” value at CK1α (setting [4]) was “B (80%< substrate protein remaining %≤ 100%)”. At IKZF2 (setting [4]), the “IKZF2 substrate protein remaining %” value was “A (0% ≤ substrate protein remaining % ≤ 80%)”. In addition, at IKZF1 (setting [4]), the “IKZF 1 substrate protein remaining %” value is on record as “B (80%< substrate protein remaining %≤ 100%)”. Besides, the “Wee1 substrate protein remaining %” value on WEE1 (setting [4]) was “B (80%< substrate protein remaining %≤ 100%)”.
Regarding `O=C1CCC(N2Cc3c(CN4CCC(c5ccon5)CC4)cccc3C2=S)C(=O)N1` (stereo not drawn) [GT-08817, 3-(4-((4-(isoxazol-3-yl)piperidin-1-yl)methyl)-1-thioxoisoindolin-2-yl)piperidine-2,6-dione], in assay [1], the inhibition at 0.01 µM fell in the range of 40 to 60% and the inhibition at 0.5 µM fell in the range of 30 to 40%. In addition, in assay [2], the inhibition at 0.5 µM was in the range of 53 to 60% and the inhibition at 2 µM fell in the range of 80 to 100%. Besides, the “GSPT1 substrate protein remaining %” value with GSPT1 (setting [4]) is on record as “B (80%< substrate protein remaining %≤ 100%)”. Also, in assay [3], the inhibition at 0.01 µM was in the range of 20 to 30% and the inhibition at 0.5 µM was in the range of 40 to 50%. At IKZF3 (setting [4]), the “IKZF3 substrate protein remaining %” value is recorded as “B (80%< substrate protein remaining %≤ 100%)”. The “CK1α substrate protein remaining %” value on CK1α (setting [4]) is “B (80%< substrate protein remaining %≤ 100%)”. Moreover, the “IKZF2 substrate protein remaining %” value on IKZF2 (setting [4]) is recorded as “B (80%< substrate protein remaining %≤ 100%)”. Also, at IKZF1 (setting [4]), the “IKZF 1 substrate protein remaining %” value is recorded as “B (80%< substrate protein remaining %≤ 100%)”. Further, the “Wee1 substrate protein remaining %” value at WEE1 (setting [4]) was “A (0% ≤ substrate protein remaining % ≤ 80%)”.
Consider `O=C1CCC(N2Cc3c(CN4CC=C(c5ncnc6sc(-c7ccccc7)cc56)CC4)cccc3C2=S)C(=O)N1` (stereo not drawn) [GT-08956, 3-(4-((4-(6-phenylthieno[2,3-d]pyrimidin-4-yl)-3,6-dihydropyridin-1(2H)-yl)methyl)-1-thioxoisoindolin-2-yl)piperidine-2,6-dione], for which, in [1], the inhibition at 0.01 µM was in the range of 18 to 25% and the inhibition at 0.5 µM lay within 40 to 60%. In addition, in assay [2], the inhibition at 0.5 µM was in the range of 53 to 60% and the inhibition at 2 µM lay in the range of 60 to 80%. For the same compound, in the assay with GSPT1 (setting [5]), the “GSPT1 substrate protein remaining %” value was “A (0% ≤ substrate protein remaining % ≤ 80%)”. Moreover, in assay [3], the inhibition at 0.01 µM lay within 20 to 30% and the inhibition at 0.5 µM lay in the range of 40 to 50%. On IKZF3 (setting [5]), the “IKZF3 substrate protein remaining %” value was “B (80%< substrate protein remaining %≤ 100%)”. For the same compound, the “CK1α substrate protein remaining %” value on CK1α (setting [5]) was “B (80%< substrate protein remaining %≤ 100%)”. In addition, the “IKZF2 substrate protein remaining %” value at IKZF2 (setting [5]) was “B (80%< substrate protein remaining %≤ 100%)”. For the same compound, the “IKZF 1 substrate protein remaining %” value on IKZF1 (setting [5]) is listed as “B (80%< substrate protein remaining %≤ 100%)”. Further, the “Wee1 substrate protein remaining %” value on WEE1 (setting [5]) is reported as “A (0% ≤ substrate protein remaining % ≤ 80%)”.
In the case of `O=C1CCC(N2Cc3cc(CN4CCN(c5cccc(Cl)n5)CC4)ccc3C2=S)C(=O)N1` (stereo not drawn) [GT-09215, 3-(5-((4-(6-chloropyridin-2-yl)piperazin-1-yl)methyl)-1-thioxoisoindolin-2-yl)piperidine-2,6-dione], in [1], the inhibition at 0.01 µM was 40 to 60% and the inhibition at 0.5 µM was in the range of 80 to 100%. Also, in assay [2], the inhibition at 0.5 µM is 60 to 80% and the inhibition at 2 µM is 80 to 100%. For the same compound, the “GSPT1 substrate protein remaining %” value in the assay on GSPT1 (setting [4]) is “A (0% ≤ substrate protein remaining % ≤ 80%)”. Also, in assay [3], the inhibition at 0.01 µM lay within 30 to 40% and the inhibition at 0.5 µM was 50 to 60%. The “IKZF3 substrate protein remaining %” value at IKZF3 (setting [4]) is on record as “B (80%< substrate protein remaining %≤ 100%)”. In addition, the “CK1α substrate protein remaining %” value at CK1α (setting [4]) was “B (80%< substrate protein remaining %≤ 100%)”. Besides, the “IKZF2 substrate protein remaining %” value at IKZF2 (setting [4]) is “B (80%< substrate protein remaining %≤ 100%)”. In addition, the “IKZF 1 substrate protein remaining %” value on IKZF1 (setting [4]) was “B (80%< substrate protein remaining %≤ 100%)”. Moreover, the “Wee1 substrate protein remaining %” value on WEE1 (setting [4]) was “B (80%< substrate protein remaining %≤ 100%)”.
In the case of `O=C1CCC(N2Cc3cc(CN4CCN(c5ccc(Cl)cn5)CC4)ccc3C2=S)C(=O)N1` (stereo not drawn) [GT-09217, 3-(5-((4-(5-chloropyridin-2-yl)piperazin-1-yl)methyl)-1-thioxoisoindolin-2-yl)piperidine-2,6-dione], the inhibition at 0.01 µM was in the range of 40 to 60% in assay [1] and 30 to 40% in assay [3]. The inhibition at 0.5 µM in [1] lay within 80 to 100%; in assay [2], 60 to 80%; in assay [3], 60 to 70%. Also, the inhibition at 2 µM in assay [2] fell in the range of 80 to 100%. Besides, the “GSPT1 substrate protein remaining %” value in the assay with GSPT1 (setting [4]) is on record as “A (0% ≤ substrate protein remaining % ≤ 80%)”. Moreover, at IKZF3 (setting [4]), the “IKZF3 substrate protein remaining %” value is listed as “B (80%< substrate protein remaining %≤ 100%)”. Moreover, the “CK1α substrate protein remaining %” value on CK1α (setting [4]) is “B (80%< substrate protein remaining %≤ 100%)”. In addition, at IKZF2 (setting [4]), the “IKZF2 substrate protein remaining %” value is “B (80%< substrate protein remaining %≤ 100%)”. Moreover, the “IKZF 1 substrate protein remaining %” value at IKZF1 (setting [4]) is “B (80%< substrate protein remaining %≤ 100%)”. The “Wee1 substrate protein remaining %” value at WEE1 (setting [4]) is on record as “B (80%< substrate protein remaining %≤ 100%)”.

These data come from EP4745135A1 (Gluetacs Therapeutics (Shanghai) Co., Ltd., priority 2023, dated 2025).
